“And” between values parts separate entries of the source, which are not always exact repeats. Equal values may be shown once. “Also recorded” adds a separate entry of the source. Read-outs that look alike come from different tables or passages of the source.
Key:
[1] = system: OVCAR-8 ovarian cancer cells
[2] = system: RXF-393 renal cancer cells; assay: cells; conditions: Homo sapiens; for GI50: RXF 393; for activity at 10 µM: RXF 393, read-out: Percent Growth, log10 conc -5.0; for activity at 1 µM: RXF 393, read-out: Percent Growth, log10 conc -6.0; for activity at 0.1 µM: RXF 393, read-out: Percent Growth, log10 conc -7.0; for activity at 0.01 µM: RXF 393, read-out: Percent Growth, log10 conc -8.0
[3] = system: MCF7/ADR-RES breast cancer cells; assay: cells; type: cell-based
tubulin = type: biochemical, calf; conditions: in vitro; read-out: LC50 (inhibition of microtubule assembly in vitro)
tumor cell lines = assay: cells; type: cell-based
[4] = system: HOP-62 non-small cell lung cancer cells
[5] = system: HOP-92 non-small cell lung cancer cells
SF-295 CNS cancer cells [6] = system: SF-295 CNS cancer cells
[7] = system: OVCAR-3 ovarian cancer cells
[8] = system: SK-OV-3 ovarian cancer cells
A498 renal cancer cells [9] = system: A498 renal cancer cells
[10] = system: RXF-393 renal cancer cells
[11] = system: HS 578T breast cancer cells
[12] = system: HOP-62 non-small cell lung cancer cells; assay: cells; conditions: Homo sapiens
[13] = system: HOP-92 non-small cell lung cancer cells; assay: cells; conditions: Homo sapiens
SF-295 CNS cancer cells [14] = assay: cells; conditions: Homo sapiens
[15] = system: OVCAR-3 ovarian cancer cells; assay: cells; conditions: Homo sapiens
[16] = system: SK-OV-3 ovarian cancer cells; assay: cells; conditions: Homo sapiens
A498 renal cancer cells [17] = assay: cells; conditions: Homo sapiens
[18] = system: CAKI-1 renal cancer cells; assay: cells; conditions: Homo sapiens
[19] = system: HS 578T breast cancer cells; assay: cells; conditions: Homo sapiens

SMILES: COc1cc2c(c(OC)c1OC)-c1ccc(OC)c(=O)cc1[C@@H](NC(C)=O)CC2 [Colchicine, reference compound]
- GI50 (MOLT-4 leukemia cells): 35.6 nM
- Percent Growth (MOLT-4 leukemia cells; log10 conc -4.0, 100 µM): 1%
- Percent Growth (MOLT-4 leukemia cells; log10 conc -5.0): 0%
- Percent Growth (MOLT-4 leukemia cells; log10 conc -6.0, 1 µM): 1%
- Percent Growth (MOLT-4 leukemia cells; log10 conc -8.0): 98%
- Percent Growth ([1]; log10 conc -4.0, 100 µM): -39%
- Percent Growth ([1]; log10 conc -8.0): 99%
- GI50 [2]: < 10 nM
- activity at 10 µM [2]: 13%
- activity at 1 µM [2]: 9%
- activity at 0.1 µM [2]: 7%
- activity at 0.01 µM [2]: 48%

SMILES: CCCC(=O)NC1CCc2cc(OC)c(OC)c(OC)c2-c2ccc(C(C)=O)cc21 (centres unmarked)
- GI50 ([3]; Homo sapiens, MCF7): < 10 nM
- Percent Growth ([3]; log10 conc -4.0, 100 µM): -22% and -23%
- IC50 (tubulin): 600 nM
- GI50 (tumor cell lines): < 10 nM
- activity in the NCI screen (tumor cell lines): activity similar to 7-acetamidoallocolchinone; also recorded: active
- GI50 (MOLT-4 leukemia cells): < 10 nM
- TGI (MOLT-4 leukemia cells): > 100 µM
- CC50 (MOLT-4 leukemia cells; human, molt-4 leukemia cells): > 100 µM
- Percent Growth (MOLT-4 leukemia cells; log10 conc -4.0, 100 µM): 2% and 6%
- Percent Growth (MOLT-4 leukemia cells; log10 conc -5.0): 9%
- Percent Growth (MOLT-4 leukemia cells; log10 conc -6.0, 1 µM): 12% and 8%
- Percent Growth (MOLT-4 leukemia cells; log10 conc -7.0, 0.1 µM): 12% and 8%
- Percent Growth (MOLT-4 leukemia cells; log10 conc -8.0, 0.01 µM): 16% and 9%
- TGI [4]: > 100 µM
- Percent Growth ([4]; log10 conc -4.0, 100 µM): 34%
- Percent Growth ([4]; log10 conc -5.0, 10 µM): 44%
- Percent Growth ([4]; log10 conc -6.0, 1 µM): 34%
- Percent Growth ([4]; log10 conc -7.0, 0.1 µM): 25% and 46%
- GI50 [5]: < 10 nM
- TGI [5]: > 100 µM
- GI50 (SF-268 CNS cancer cells): < 10 nM
- CC50 (SF-268 CNS cancer cells; human, sf-268 cns cancer cells): > 100 µM
- Percent Growth (SF-268 CNS cancer cells; log10 conc -5.0, 10 µM): 14% and 25%
- Percent Growth (SF-268 CNS cancer cells; log10 conc -6.0, 1 µM): 18% and 30%
- Percent Growth (SF-268 CNS cancer cells; log10 conc -7.0, 0.1 µM): 29% and 31%
- Percent Growth (SF-268 CNS cancer cells; log10 conc -8.0, 0.01 µM): 43% and 32%
- TGI (SF-295 CNS cancer cells [6]): > 100 µM
- Percent Growth (SF-295 CNS cancer cells [6]; log10 conc -4.0, 100 µM): 19%
- Percent Growth (SF-295 CNS cancer cells [6]; log10 conc -5.0, 10 µM): 12%
- GI50 (SF-539 CNS cancer cells): < 10 nM
- TGI (SF-539 CNS cancer cells): 12.9 nM
- CC50 (SF-539 CNS cancer cells; human, sf-539 cns cancer cells): > 100 µM
- Percent Growth (SF-539 CNS cancer cells; log10 conc -4.0, 100 µM): -8% and 1%
- Percent Growth (SF-539 CNS cancer cells; log10 conc -5.0, 10 µM): -13% and -12%
- Percent Growth (SF-539 CNS cancer cells; log10 conc -6.0, 1 µM): -8% and -16%
- Percent Growth (SF-539 CNS cancer cells; log10 conc -7.0, 0.1 µM): -13% and -11%
- Percent Growth (SF-539 CNS cancer cells; log10 conc -8.0): 2%
- Percent Growth (SF-539 CNS cancer cells; log10 conc -8.0, 0.01 µM): -8%
- GI50 (SNB-19 CNS cancer cells): < 10 nM
- CC50 (SNB-19 CNS cancer cells; human, snb-19 cns cancer cells): > 100 µM
- Percent Growth (SNB-19 CNS cancer cells; log10 conc -4.0, 100 µM): 19%
- Percent Growth (SNB-19 CNS cancer cells; log10 conc -6.0, 1 µM): 13% and 26%
- Percent Growth (SNB-19 CNS cancer cells; log10 conc -8.0, 0.01 µM): 18% and 25%
- GI50 (SNB-75 CNS cancer cells): < 10 nM
- CC50 (SNB-75 CNS cancer cells; human, snb-75 cns cancer cells): > 100 µM
- Percent Growth (SNB-75 CNS cancer cells; log10 conc -4.0, 100 µM): 18%
- Percent Growth (SNB-75 CNS cancer cells; log10 conc -8.0): -28%
- GI50 (U251 CNS cancer cells): < 10 nM
- CC50 (U251 CNS cancer cells; human, u251 cns cancer cells): > 100 µM
- Percent Growth (U251 CNS cancer cells; log10 conc -5.0): 5%
- Percent Growth (U251 CNS cancer cells; log10 conc -6.0, 1 µM): 16% and 7%
- Percent Growth (U251 CNS cancer cells; log10 conc -7.0, 0.1 µM): -16%
- Percent Growth (U251 CNS cancer cells; log10 conc -8.0, 0.01 µM): 1% and 4%
- TGI [7]: < 10 nM
- Percent Growth ([7]; log10 conc -4.0, 100 µM): -30%
- Percent Growth ([7]; log10 conc -5.0): -21%
- Percent Growth ([7]; log10 conc -7.0, 0.1 µM): -12%
- Percent Growth ([7]; log10 conc -8.0, 0.01 µM): -16% and -19%
- GI50 [1]: < 10 nM
- TGI [1]: > 10 nM
- CC50 ([1]; human, ovcar-8 ovarian cancer cells): > 100 µM
- Percent Growth ([8]; log10 conc -5.0): -19%
- Percent Growth ([8]; log10 conc -7.0, 0.1 µM): 3%
- GI50 (A498 renal cancer cells [9]): < 10 nM
- CC50 (A498 renal cancer cells [9]; human, a498 renal cancer cells): > 100 µM
- Percent Growth (A498 renal cancer cells [9]; log10 conc -6.0, 1 µM): -40%
- Percent Growth (A498 renal cancer cells [9]; log10 conc -8.0): 13%
- TGI [10]: > 100 µM
- Percent Growth ([10]; log10 conc -5.0, 10 µM): 26%
- Percent Growth ([10]; log10 conc -6.0, 1 µM): 40%
- Percent Growth ([10]; log10 conc -8.0, 0.01 µM): 29%
- TGI [11]: > 100 µM
- Percent Growth ([11]; log10 conc -5.0, 10 µM): 41%
- Percent Growth ([11]; log10 conc -6.0, 1 µM): 43%
- Percent Growth ([11]; log10 conc -7.0, 0.1 µM): 31%
- GI50 ([12]; HOP-62): < 10 nM
- CC50 ([12]; HOP-62, read-out: LC50): > 100 µM
- activity at 100 µM ([12]; HOP-62, read-out: Percent Growth, log10 conc -4.0): 43%
- activity at 10 µM ([12]; HOP-62, read-out: Percent Growth, log10 conc -5.0): 41%
- activity at 1 µM ([12]; HOP-62, read-out: Percent Growth, log10 conc -6.0): 36%
- GI50 ([13]; HOP-92): 17.6 nM
- CC50 ([13]; HOP-92, read-out: LC50): > 100 µM
- GI50 (SF-295 CNS cancer cells [14]; SF-295): < 10 nM
- CC50 (SF-295 CNS cancer cells [14]; SF-295, read-out: LC50): > 100 µM
- activity at 100 µM (SF-295 CNS cancer cells [14]; SF-295, read-out: Percent Growth, log10 conc -4.0): 21%
- activity at 10 µM (SF-295 CNS cancer cells [14]; SF-295, read-out: Percent Growth, log10 conc -5.0): 10%
- GI50 ([15]; OVCAR-3): < 10 nM
- CC50 ([15]; OVCAR-3, read-out: LC50): > 100 µM
- GI50 ([16]; SK-OV-3): < 10 nM
- CC50 ([16]; SK-OV-3, read-out: LC50): > 100 µM
- GI50 (A498 renal cancer cells [17]; A498): 10.4 nM
- CC50 (A498 renal cancer cells [17]; A498, read-out: LC50): 50 µM
- GI50 ([18]; CAKI-1): < 10 nM
- CC50 ([18]; CAKI-1, read-out: LC50): > 100 µM
- GI50 [2]: < 10 nM
- CC50 ([2]; RXF 393, read-out: LC50): > 100 µM
- activity at 10 µM [2]: 30%
- activity at 1 µM [2]: 39%
- activity at 0.1 µM [2]: 36%
- activity at 0.01 µM [2]: 18%
- GI50 [19]: < 10 nM
- CC50 ([19]; read-out: LC50): > 100 µM
- activity at 100 µM ([19]; read-out: Percent Growth, log10 conc -4.0): 6%
- activity at 10 µM ([19]; read-out: Percent Growth, log10 conc -5.0): 26%
- activity at 1 µM ([19]; read-out: Percent Growth, log10 conc -6.0): 26%
- activity at 0.1 µM ([19]; read-out: Percent Growth, log10 conc -7.0): 22%

SMILES: COc1cc2c(c(OC)c1OC)-c1ccc(C(C)=O)cc1C(N)CC2 (centres unmarked) [7-Amino-allocolchinone]
- IC50 (tubulin): 3000 nM

— patent publication US5760092A, “Allocolchinones and uses thereof” (Brandeis University, priority 1996, dated 1998)
